“And” between values parts separate entries of the source, which are not always exact repeats. Identical values can stand only once.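 1) Cells in 96-well plates. 2) Compound, 48 h, 5 concentrations. 3) Linear interpolation between surrounding doses. 4) Unreached endpoint = highest concentration. Abbreviation: GI50, concentration required for 50% inhibition of growth. TGI is the concentration that stops growth completely.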
Assays:
Test in all cases: inhibition of tumour cell growth, NCI panel, 48 h
MOLT-4 leukemia = test system: MOLT-4 leukemia
ACHN renal = test system: ACHN renal
HCC-2998 colon = test system: HCC-2998 colon
SF-539 CNS = test system: SF-539 CNS
CAKI-1 renal = test system: CAKI-1 renal
EKVX NSCLC = test system: EKVX NSCLC
OVCAR-8 ovarian = test system: OVCAR-8 ovarian
A549 NSCLC = test system: A549 NSCLC
RXF 393 renal = test system: RXF 393 renal
CCRF-CEM leukemia = test system: CCRF-CEM leukemia

| SMILES | GI50 (MOLT-4 leukemia) | GI50 (ACHN renal) | TGI (ACHN renal) | GI50 (HCC-2998 colon) | TGI (HCC-2998 colon) | GI50 (SF-539 CNS) | TGI (SF-539 CNS) | GI50 (CAKI-1 renal) | TGI (CAKI-1 renal) | GI50 (EKVX NSCLC) | TGI (EKVX NSCLC) | GI50 (OVCAR-8 ovarian) | TGI (OVCAR-8 ovarian) | TGI (A549 NSCLC) | GI50 (RXF 393 renal) | TGI (RXF 393 renal) | GI50 (CCRF-CEM leukemia) | TGI (CCRF-CEM leukemia) | TGI (MOLT-4 leukemia) | GI50 (A549 NSCLC) |
| --- | --- | --- | --- | --- | --- | --- | --- | --- | --- | --- | --- | --- | --- | --- | --- | --- | --- | --- | --- | --- |
| CC(=O)OCC1OC([S-])C(OC(C)=O)C(OC(C)=O)C1OC(C)=O.[Au+].c1ccc(CN2[CH-]N(Cc3ccccc3)C(c3ccccc3)=C2c2ccccc2)cc1 | 3.29 µM and 0.399 µM | 1.87 µM and 0.674 µM | 3.62 µM and 2.72 µM | 1.64 µM and 0.625 µM | 3.34 µM and 1.9 µM | 2.96 µM and 0.855 µM | 10.4 µM and 3.81 µM | 0.866 µM | 3.37 µM | 2.92 µM and 0.523 µM | 9.53 µM and 4.27 µM | 3.17 µM and 0.479 µM | 11.6 µM and 4.44 µM | 34.7 µM and 7.32 µM | 1.71 µM and 0.527 µM | 3.19 µM and 1.26 µM | 2.65 µM and 0.283 µM | 13.8 µM and 9.52 µM |  |  |
| O=c1[nH][nH]c(=O)c2c(O)c(-c3ccccc3)ncc12 | 35 µM and 173 µM | 182 µM | 845 µM | 34.9 µM and 103 µM | 642 µM | 32.6 µM | 95.1 µM | 83.8 µM and 145 µM | 748 µM | 228 µM | 939 µM | 37 µM and 64.6 µM | 649 µM | 807 µM | 27.8 µM and 44.9 µM | 62 µM and 187 µM | 35.2 µM and 55.1 µM | 894 µM | > 1000 µM | 57.7 µM and 325 µM |
| COC(=O)c1cc2c([nH]c3ccccc32)c(-c2nc3ccccc3cc2CO)n1 | > 100 µM | 30 µM | > 100 µM | > 100 µM | > 100 µM | 47 µM | > 100 µM | > 100 µM | > 100 µM | > 100 µM | > 100 µM | > 100 µM | > 100 µM | > 100 µM | 21.6 µM | > 100 µM | 25.5 µM | > 100 µM | > 100 µM | > 100 µM |
| COc1ccc(C2CC(c3ccc4ccccc4c3)=NN2c2nc(O)c(C3=c4cc(Cl)ccc4=NC3=O)s2)cc1 (stereo not given) | 0.0329 µM and < 0.005 µM | 0.025 µM and < 0.005 µM |  | 0.0216 µM and < 0.005 µM |  | 0.0195 µM and < 0.005 µM | 0.0402 µM and < 0.005 µM | 0.036 µM and < 0.005 µM |  | 0.0313 µM and < 0.005 µM |  | 0.0328 µM |  |  | 0.0186 µM and < 0.005 µM | 0.0389 µM and < 0.005 µM | 0.0362 µM and < 0.005 µM | 0.533 µM |  | 0.0251 µM and < 0.005 µM |
| COc1ccccc1/C=C1\CCC(CN2CCOCC2)C1=O (stereo not given) |  |  | 30 µM |  | 28.3 µM |  | 28.6 µM |  | 32.1 µM |  | 30.6 µM |  | 16.9 µM | 45 µM |  | 30.6 µM |  | > 21.3 µM | 14.2 µM |  |
| CC(=O)OC(C)(C)C[N+](=O)[O-] |  |  | > 100 µM |  | > 100 µM |  | > 100 µM |  | > 100 µM |  | > 100 µM |  | > 100 µM | > 100 µM |  | > 100 µM |  | > 100 µM | > 100 µM |  |
| O=C1c2c(c3c4ccccc4n(CCCCCCN4CCOCC4)c3c3[nH]c4ccccc4c23)C(=O)N1O | 1.79 µM | 4.14 µM |  | 9.6 µM | 32.1 µM | 1.9 µM | 4.03 µM | 8.98 µM | 28.9 µM | > 43.1 µM | > 82.5 µM | 2.44 µM | 9.39 µM | > 100 µM | 7.61 µM | 25.9 µM | 2.25 µM | 8.35 µM | 4.63 µM | 39.8 µM |
| CSc1nc(SC)c2c(C)c(Br)[nH]c2n1 |  |  | > 100 µM |  | > 100 µM |  | > 100 µM |  | > 100 µM |  | > 100 µM |  | > 100 µM | > 100 µM |  | > 100 µM |  | > 100 µM | > 100 µM |  |
| CCc1nc(N)nc(N)c1-c1ccc(N(C)Cc2ccccc2)c([N+](=O)[O-])c1 |  |  | 36.1 µM |  | 8.73 µM |  | 9.97 µM |  | 25.4 µM |  | 35 µM |  | 30 µM | 16 µM |  | 22.9 µM |  | 12.7 µM | 8.11 µM |  |
| Cc1c(C(=O)/C=C/c2ccc(Cl)cc2)nnn1-c1ccnc2c(C(F)(F)F)cccc12 | 19.3 µM | 51.6 µM | > 100 µM | 72.8 µM | > 100 µM | 51.9 µM | > 100 µM | 53.7 µM | > 100 µM | 76.5 µM | > 100 µM | 42.7 µM | > 100 µM | > 100 µM | 1.05 µM | 34.1 µM | 15.3 µM | > 100 µM | 68.3 µM | 23.7 µM |
| CN(C)c1ccc(/C=N/n2c(CCCCc3n[nH]c(=S)n3/N=C/c3ccc(N(C)C)cc3)n[nH]c2=S)cc1 | > 100 µM | > 100 µM | > 100 µM | > 100 µM | > 100 µM | > 100 µM | > 100 µM | > 100 µM | > 100 µM | > 100 µM | > 100 µM | > 100 µM | > 100 µM | > 100 µM | > 100 µM | > 100 µM | > 100 µM | > 100 µM | > 100 µM | > 100 µM |
| CN(C)c1ccc2cc3c(cc2c1)Oc1ccccc1N3.[Cl][Zn][Cl] | 3.1 µM | 1.64 µM | 3.22 µM | 16.5 µM | 31.8 µM | 3.68 µM | 15.6 µM | 2.91 µM | 10.3 µM | 7.01 µM | 28.5 µM | 5.64 µM | > 100 µM | 51.5 µM | 3.28 µM | 9.01 µM | 3.26 µM | 9.71 µM | 16.2 µM | 20.9 µM |

Source: PubChem BioAssay (NCI)
